Results taken from patent publication US10881110B2, “Herbicidal compositions comprising isoxazolo[5,4-b]pyridines” (BASF SE, priority 2014, dated 2021).
Several values for one entry are separate records, joined by “and”; a condition that tells them apart may be missing. Identical values can stand only once. Like-named read-outs stand apart in the source and are kept apart here.

Columns and labels:
Experiment in all cases: greenhouse post-emergence herbicidal test
GALAP = format: in vivo, Galium aparine; parameters: key to herbicidal activity against GALAP found: rating on a scale from 0 to 100; conditions: post emergence; for pest or weed control at 31.25 g/ha / pest or weed control at 62.5 g/ha / pest or weed control at 125 g/ha: Galium aparine, post-emergence, 480 h, read-out: herbicidal activity against GALAP found; for pest or weed control at 125 g/ha: 125 g/ha a.i.
How it was run: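 Post-emergence greenhouse test: plants in loamy sand, sprayed at 1–15 cm height with aqueous spray liquor from 10% emulsion concentrates, kept at 10-25 °C or 20-35 °C by species. Damage scored 0–100 (100 = complete destruction), usually 20 days after treatment. Expected additive effect E from Colby: E=X+Y−(X·Y/100).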

ALOMY = format: in vivo, Alopecurus myosuroides; parameters: key to herbicidal activity against ALOMY found: rating on a scale from 0 to 100; conditions: post emergence
How it was run: (§1)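 Seeds sown per species in loamy sand with roughly 4.6% humus; seedlings raised to 1 to 15 cm, then treated with water-borne spray of a 10% by weight emulsion concentrate. Response assessed on day 20 from 0 (normal growth) to 100 (destroyed).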

CONAR = format: in vivo, Convolvulus arvensis; parameters: key: rating on a scale from 0 to 100
How it was run: as §1

[1] = I.1 31.25 g/ha, B.95 1 g/ha a.i.
[2] = a.i. g/ha: I.1 20.8, B.67 62.5, 20 days after treatment
[3] = a.i. g/ha: I.1 62.5, B.67 62.5, 20 days after treatment
[4] = applied alone at 31.25 g/ha a.i.

## O=C(O)c1cc(C2CC2)nc2onc(C3CC3)c12 [I.1]
GALAP; I.1 alone 31.25 g/ha a.i.
  pest or weed control at 31.25 g/ha: 50%
GALAP; I.1 alone 62.5 g/ha a.i.
  pest or weed control at 62.5 g/ha: 80%
GALAP; 31.25 g/ha a.i.
  pest or weed control at 31.25 g/ha: 50%
GALAP; 62.5 g/ha a.i.
  pest or weed control at 62.5 g/ha: 50%
GALAP
  pest or weed control at 125 g/ha: 80%
GALAP; I.1 31.25 g/ha a.i.
  pest or weed control at 31.25 g/ha: 60%
GALAP; I.1 62.5 g/ha a.i.
  pest or weed control at 62.5 g/ha: 60%
GALAP; single active, 62.5 g/ha a.i.
  pest or weed control at 62.5 g/ha: 65%
GALAP; single active
  pest or weed control at 125 g/ha: 65%
GALAP; 6 days after treatment, g/ha a.i.: I.1 62.5, B.96 70, mixture 62.5+70
  herbicidal activity against GALAP found: 65
GALAP; 6 days after treatment, g/ha a.i.: I.1 62.5, B.96 140, mixture 62.5+140
  herbicidal activity against GALAP found: 65
GALAP; [1]
  herbicidal activity against GALAP found: 50
GALAP; I.1 31.25 g/ha, B.95 2 g/ha a.i.
  herbicidal activity against GALAP found: 50
GALAP; I.1 62.5 g/ha, B.103 7.5 g/ha a.i.
  herbicidal activity against GALAP found: 50
GALAP; I.1 62.5 g/ha, B.95 2 g/ha a.i.
  herbicidal activity against GALAP found: 60
GALAP; a.i. g/ha: I.1 15.6, B.67 125, 20 days after treatment
  herbicidal activity against GALAP found: 20%
GALAP; [2]
  herbicidal activity against GALAP found: 0%
GALAP; a.i. g/ha: I.1 31.25, B.67 125, 20 days after treatment
  herbicidal activity against GALAP found: 75%
GALAP; a.i. g/ha: I.1 31.25, B.92 0.5, 20 days after treatment
  herbicidal activity against GALAP found: 65%
GALAP; a.i. g/ha: I.1 62.5, B.191 225, 20 days after treatment
  herbicidal activity against GALAP found: 65%
GALAP; [3]
  herbicidal activity against GALAP found: 10%
GALAP; a.i. g/ha: I.1 62.5, B.69 25, 20 days after treatment
  herbicidal activity against GALAP found: 65%
GALAP; a.i. g/ha: I.1 62.5, B.77 75, 20 days after treatment
  herbicidal activity against GALAP found: 10%
GALAP; a.i. g/ha: I.1 62.5, B.82 31.25, 20 days after treatment
  herbicidal activity against GALAP found: 65%
GALAP; application rate a.i.: I.1 31.25 g/ha, B.84 (paraquat-dichloride) 17.5 g/ha, alone or as mixture (composition 1.84)
  herbicidal activity against GALAP found: 65
GALAP; application rate a.i.: I.1 62.5 g/ha, B.107 (topramezone) 6 g/ha, alone or as mixture (composition 1.107)
  herbicidal activity against GALAP found: 10
GALAP; application rate a.i.: I.1 125 g/ha, B.113 (glyphosate) 33.75 g/ha, alone or as mixture (composition 1.113)
  herbicidal activity against GALAP found: 80
GALAP; application rate a.i.: I.1 125 g/ha, B.113 (glyphosate) 135 g/ha, alone or as mixture (composition 1.113)
  herbicidal activity against GALAP found: 80
GALAP; [4]
  herbicidal activity against GALAP found: 50
GALAP; applied alone at 62.5 g/ha a.i.
  herbicidal activity against GALAP found: 90
GALAP; applied alone at 125 g/ha a.i.
  herbicidal activity against GALAP found: 65 and 95 and 90
ALOMY; Alopecurus myosuroides, post-emergence, 480 h, I.1 alone 31.25 g/ha a.i., read-out: herbicidal activity against ALOMY found
  pest or weed control at 31.25 g/ha: 0%
ALOMY; Alopecurus myosuroides, post-emergence, 480 h, I.1 31.25 g/ha a.i., read-out: herbicidal activity against ALOMY found
  pest or weed control at 31.25 g/ha: 0%
ALOMY; Alopecurus myosuroides, post-emergence, 480 h, I.1 62.5 g/ha a.i., read-out: herbicidal activity against ALOMY found
  pest or weed control at 62.5 g/ha: 0%
ALOMY; Alopecurus myosuroides, post-emergence, 480 h, I.1 125 g/ha a.i., read-out: herbicidal activity against ALOMY found
  pest or weed control at 125 g/ha: 25%
ALOMY; Alopecurus myosuroides, post-emergence, 480 h, single active, 15.62 g/ha a.i., read-out: herbicidal activity against ALOMY found
  pest or weed control at 15.62 g/ha: 0%
ALOMY; Alopecurus myosuroides, post-emergence, 480 h, single active, 31.25 g/ha a.i., read-out: herbicidal activity against ALOMY found
  pest or weed control at 31.25 g/ha: 0%
ALOMY; Alopecurus myosuroides, post-emergence, 480 h, single active, 62.5 g/ha a.i., read-out: herbicidal activity against ALOMY found
  pest or weed control at 62.5 g/ha: 0%
ALOMY; Alopecurus myosuroides, post-emergence, 480 h, single active, 125 g/ha a.i., read-out: herbicidal activity against ALOMY found
  pest or weed control at 125 g/ha: 25%
ALOMY; [1]
  herbicidal activity against ALOMY found: 0
ALOMY; I.1 62.5 g/ha, B.88 1 g/ha a.i.
  herbicidal activity against ALOMY found: 0
ALOMY; I.1 62.5 g/ha, B.88 2 g/ha a.i.
  herbicidal activity against ALOMY found: 0
ALOMY; I.1 62.5 g/ha, B.89 12.5 g/ha a.i.
  herbicidal activity against ALOMY found: 0
ALOMY; I.1 62.5 g/ha, B.95 1 g/ha a.i.
  herbicidal activity against ALOMY found: 0
ALOMY; a.i. g/ha: I.1 6.9, B.67 62.5, 20 days after treatment
  herbicidal activity against ALOMY found: 0%
ALOMY; [2]
  herbicidal activity against ALOMY found: 0%
ALOMY; [3]
  herbicidal activity against ALOMY found: 0%
ALOMY; application rate a.i.: I.1 250 g/ha, B.193 15 g/ha, alone or as mixture (composition 1.193)
  herbicidal activity against ALOMY found: 45
ALOMY; [4]
  herbicidal activity against ALOMY found: 0
ALOMY; applied alone at 125 g/ha a.i.
  herbicidal activity against ALOMY found: 20 and 25
ALOMY; g/ha a.i.: I.1 31.25, B.52 2.5, mixture 31.25+2.5
  herbicidal activity against ALOMY found: 25
ALOMY; g/ha a.i.: I.1 62.5, B.20 4, mixture 62.5+4
  herbicidal activity against ALOMY found: 25
ALOMY; g/ha a.i.: I.1 62.5, B.52 2.5, mixture 62.5+2.5
  herbicidal activity against ALOMY found: 25
ALOMY; g/ha a.i.: I.1 125, B.20 2, mixture 125+2
  herbicidal activity against ALOMY found: 30
ALOMY; g/ha a.i.: I.1 125, B.20 4, mixture 125+4
  herbicidal activity against ALOMY found: 30
ALOMY; g/ha a.i.: I.1 125, B.24 1, mixture 125+1
  herbicidal activity against ALOMY found: 30
ALOMY; g/ha a.i.: I.1 125, B.24 2, mixture 125+2
  herbicidal activity against ALOMY found: 30
ALOMY; g/ha a.i.: I.1 125, B.52 2.5, mixture 125+2.5
  herbicidal activity against ALOMY found: 30
ALOMY; g/ha a.i.: I.1 125, B.63 0.5, mixture 125+0.5
  herbicidal activity against ALOMY found: 30
CONAR; 31.25 g/ha a.i.
  herbicidal activity against CONAR found: 40
CONAR; 62.5 g/ha a.i.
  herbicidal activity against CONAR found: 60
